Read-outs that look alike come from different tables or passages of the source.
Biological target: T1, Human BCL-XL protein (N-terminal HiBiT tagged BCL-XL in HT1080 cells) (Homo sapiens, UniProt Q07817)
T1 construct: expressed in transfected cells; host or cells: HT-1080 (ATCC CCL-121), stably transduced with lentivirus pLV-UBC-N-HiBiT-BCL-XL-PGK-puro and selected with puromycin
Experiment: HiBiT based degradation assay
Type: cell-based
Conditions: HT1080 cells expressing HiBiT-BCL-XL; for Ymin (6 h) / Ymin (24 h): BCL-XL degradation normalized with DMSO control; for DC50: BCL-XL degradation
Procedure, shortened: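 HT1080 cells stably transduced by lentivirus with N-terminally HiBiT-tagged human BCL-XL and kept under 1 μg/mL puromycin selection were seeded at three thousand cells per well in 40 μL RPMI 1640 into 384-well plates pre-spotted with compounds across a concentration range. Luminescence was read on a PHERAstar FSX, normalized to DMSO, and fitted with a four-parameter logistic model.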

T1 sequence (Q07817 whole entry): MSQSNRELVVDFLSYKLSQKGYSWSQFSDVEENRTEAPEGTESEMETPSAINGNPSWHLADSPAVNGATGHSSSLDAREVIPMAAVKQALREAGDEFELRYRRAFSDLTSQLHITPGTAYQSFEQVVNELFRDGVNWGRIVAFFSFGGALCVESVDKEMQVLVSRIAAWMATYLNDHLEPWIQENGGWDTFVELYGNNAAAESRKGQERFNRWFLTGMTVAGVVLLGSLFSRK

SMILES	Ymin (6 h)	Ymin (24 h)	DC50 (6 h, read-out: EC50 (6 h))	DC50 (24 h, read-out: EC50 (24 h))
Cc1c(OCCCc2ccc(CC(=O)Nc3ccc4c(C5CCC(=O)NC5=O)nn(C)c4c3)nc2)cccc1-c1ccc(N2CCc3cccc(C(=O)Nc4nc5ccccc5s4)c3C2)nc1C(=O)O (stereo not shown) [Compound 280, 6-[8-(1,3-benzothiazol-2-ylcarbamoyl)-3,4-dihydro-1H-isoquinolin-2-yl]-3-[3-[3-[6-[2-[[3-(2,6-dioxo-3-piperidyl)-1-methyl-indazol-6-yl]amino]-2-oxo-ethyl]-3-pyridyl]propoxy]-2-methyl-phenyl]pyridine-2-carboxylic acid]		B (50% ≤ Ymin < 70%)		< 100 nM
Cn1nc(C2CCC(=O)NC2=O)c2ccc(NC(=O)CN3CCN(CCOc4cccc(-c5ccc(N6CCc7cccc(C(=O)Nc8nc9ccccc9s8)c7C6)nc5C(=O)O)c4C(F)(F)F)CC3)cc21 (stereo not shown) [Compound 126, 6-(8-(benzo[d]thiazol-2-ylcarbamoyl)-3,4-dihydroisoquinolin-2(1H)-yl)-3-(3-(2-(4-(2-((3-(2,6-dioxopiperidin-3-yl)-1-methyl-1H-indazol-6-yl)amino)-2-oxoethyl)piperazin-1-yl)ethoxy)-2-(trifluoromethyl)phenyl)picolinic acid]	B (50% ≤ Ymin < 70%)		100 to 1000 nM	
Cc1c(O[C@H]2CC[C@H](CCCN3CCN(c4ccc5c(C6CCC(=O)NC6=O)nn(C)c5c4)[C@@H](C)C3)CC2)cccc1-c1ccc(N2CCc3cccc(C(=O)Nc4nc5ccccc5s4)c3C2)nc1C(=O)O (stereo partly drawn) [Compound 278b, 6-(8-(benzo[d]thiazol-2-ylcarbamoyl)-3,4-dihydroisoquinolin-2(1H)-yl)-3-(3-(((1R,4r)-4-(3-((3S)-4-(3-(2,6-dioxopiperidin-3-yl)-1-methyl-1H-indazol-6-yl)-3-methylpiperazin-1-yl)propyl)cyclohexyl)oxy)-2-methylphenyl)picolinic acid]		A (Ymin < 50%)		< 100 nM
Cc1c(O[C@H]2CC[C@H](CCCCN3CCC[C@H](c4ccc5c(C6CCC(=O)NC6=O)nn(C)c5c4)C3)CC2)cccc1-c1ccc(N2CCc3cccc(C(=O)Nc4nc5ccccc5s4)c3C2)nc1C(=O)O (single isomer, unassigned) [Compound 352a]		A (Ymin < 50%)		< 100 nM
Cc1c(O[C@H]2CC[C@H](CCCCN3CCC[C@@H](c4ccc5c(C6CCC(=O)NC6=O)nn(C)c5c4)C3)CC2)cccc1-c1ccc(N2CCc3cccc(C(=O)Nc4nc5ccccc5s4)c3C2)nc1C(=O)O (single isomer, unassigned) [Compound 352b]		A (Ymin < 50%)		< 100 nM
Cc1cc(OC[C@H](C)CC2CCN(CC(=O)Nc3ccc4c(C5CCC(=O)NC5=O)nn(C)c4c3)CC2)ccc1-c1ccc(N2CCc3cccc(C(=O)Nc4nc5ccccc5s4)c3C2)nc1C(=O)O (single isomer, unassigned) [Compound 271a]		A (Ymin < 50%)		< 100 nM
Cn1nc(C2CCC(=O)NC2=O)c2ccc(N3CCN(CCCC[C@H]4CC[C@H](Oc5cccc(-c6ccc(N7CCc8cccc(C(=O)Nc9nc%10ccccc%10s9)c8C7)nc6C(=O)O)c5C(F)(F)F)CC4)CC3)cc21 (stereo partly shown) [Compound 319a, 6-(8-(benzo[d]thiazol-2-ylcarbamoyl)-3,4-dihydroisoquinolin-2(1H)-yl)-3-(3-(((1s,4r)-4-(4-(4-(3-(2,6-dioxopiperidin-3-yl)-1-methyl-1H-indazol-6-yl)piperazin-1-yl)butyl)cyclohexyl)oxy)-2-(trifluoromethyl)phenyl)picolinic acid]		A (Ymin < 50%)		< 100 nM
Cc1c(OCC(F)(F)CN2C[C@@H](C)N(CC(=O)Nc3cccc4c(C5CCC(=O)NC5=O)nn(C)c34)[C@@H](C)C2)cccc1-c1ccc(N2CCc3cccc(C(=O)Nc4nc5ccccc5s4)c3C2)nc1C(=O)O (stereo partly drawn) [Compound 209a, 6-[8-(1,3-benzothiazol-2-ylcarbamoyl)-3,4-dihydro-1H-isoquinolin-2-yl]-3-[3-[3-[(3R,5S)-4-[2-[[3-(2,6-dioxo-3-piperidyl)-1-methyl-indazol-7-yl]amino]-2-oxo-ethyl]-3,5-dimethyl-piperazin-1-yl]-2,2-difluoro-propoxy]-2-methyl-phenyl]pyridine-2-carboxylic acid]		B (50% ≤ Ymin < 70%)		100 to 1000 nM
Cc1c(OCCCCC2CCN(CC3CCN(c4cccc5c(C6CCC(=O)NC6=O)nn(C)c45)CC3)CC2)cccc1-c1ccc(N2CCc3cccc(C(=O)Nc4nc5ccccc5s4)c3C2)nc1C(=O)O (stereo not shown) [Compound 285, 6-[8-(1,3-benzothiazol-2-ylcarbamoyl)-3,4-dihydro-1H-isoquinolin-2-yl]-3-[3-[4-[1-[[1-[3-(2,6-dioxo-3-piperidyl)-1-methyl-indazol-7-yl]-4-piperidyl]methyl]-4-piperidyl]butoxy]-2-methyl-phenyl]pyridine-2-carboxylic acid]		A (Ymin < 50%)		< 100 nM
Cc1c(O[C@H]2CC[C@H](CCCCN3CCC[C@@H](c4cccc5c(C6CCC(=O)NC6=O)nn(C)c45)C3)CC2)cccc1-c1ccc(N2CCc3cccc(C(=O)Nc4nc5ccccc5s4)c3C2)nc1C(=O)O (single isomer, unassigned) [Compound 351b]		A (Ymin < 50%)		< 100 nM
Cc1c(OCCCC2CCN(CC(=O)Nc3ccc4c(N5CCC(=O)NC5=O)nn(C)c4c3)CC2)cccc1-c1ccc(N2CCc3cccc(C(=O)Nc4nc5ccccc5s4)c3C2)nc1C(=O)O [Compound 317, 6-(8-(benzo[d]thiazol-2-ylcarbamoyl)-3,4-dihydroisoquinolin-2(1H)-yl)-3-(3-(3-(1-(2-((3-(2,4-dioxotetrahydropyrimidin-1(2H)-yl)-1-methyl-1H-indazol-6-yl)amino)-2-oxoethyl)piperidin-4-yl)propoxy)-2-methylphenyl)picolinic acid]		B (50% ≤ Ymin < 70%)		< 100 nM

Further lines, results first:

Ymin (6 h)	Ymin (24 h)	DC50 (6 h, read-out: EC50 (6 h))	DC50 (24 h, read-out: EC50 (24 h))	SMILES
B (50% ≤ Ymin < 70%)	A (Ymin < 50%)	100 to 1000 nM	< 100 nM	Cc1c(OCCCN2CCN(CC(=O)N3CCN(c4cccc5c(C6CCC(=O)NC6=O)nn(C)c45)CC3)CC2)cccc1-c1ccc(N2CCc3cccc(C(=O)Nc4nc5ccccc5s4)c3C2)nc1C(=O)O (stereo not shown) [Compound 151, 6-(8-(Benzo[d]thiazol-2-ylcarbamoyl)-3,4-dihydroisoquinolin-2(1H)-yl)-3-(3-(3-(4-(2-(4-(3-(2,6-dioxopiperidin-3-yl)-1-methyl-1H-indazol-7-yl)piperazin-1-yl)-2-oxoethyl)piperazin-1-yl)propoxy)-2-methylphenyl)picolinic acid]
B (50% ≤ Ymin < 70%)	B (50% ≤ Ymin < 70%)	< 100 nM	< 100 nM	Cc1c(OCCC2CCN(CC(=O)Nc3cccc4c(C5CCC(=O)NC5=O)nn(C)c34)CC2)cccc1-c1ccc(N2CCc3cccc(C(=O)Nc4nc5ccccc5s4)c3C2)nc1C(=O)O (stereo not shown) [Compound 101, 6-[8-(1,3-benzothiazol-2-ylcarbamoyl)-3,4-dihydro-1H-isoquinolin-2-yl]-3-[3-[2-[1-[2-[[3-(2,6-dioxo-3-piperidyl)-1-methyl-indazol-7-yl]amino]-2-oxo-ethyl]-4-piperidyl]ethoxy]-2-methyl-phenyl]pyridine-2-carboxylic acid]
B (50% ≤ Ymin < 70%)	A (Ymin < 50%)	< 100 nM	< 100 nM	Cc1c(OCCN2CCN(CC(=O)N3CCN(c4ccc5c(C6CCC(=O)NC6=O)nn(C)c5c4)CC3)CC2)cccc1-c1ccc(N2CCc3cccc(C(=O)Nc4nc5ccccc5s4)c3C2)nc1C(=O)O (stereo not shown) [Compound 141, 6-(8-(benzo[d]thiazol-2-ylcarbamoyl)-3,4-dihydroisoquinolin-2(1H)-yl)-3-(3-(2-(4-(2-(4-(3-(2,6-dioxopiperidin-3-yl)-1-methyl-1H-indazol-6-yl)piperazin-1-yl)-2-oxoethyl)piperazin-1-yl)ethoxy)-2-methylphenyl)picolinic acid]
	A (Ymin < 50%)		< 100 nM	Cc1c(OCCCN2CCN(CC3CCC4(CC3)CN(c3cccc5c(C6CCC(=O)NC6=O)nn(C)c35)C4)CC2)cccc1-c1ccc(N2CCc3cccc(C(=O)Nc4nc5ccccc5s4)c3C2)nc1C(=O)O (stereo not shown) [Compound 260, 6-(8-(benzo[d]thiazol-2-ylcarbamoyl)-3,4-dihydroisoquinolin-2(1H)-yl)-3-(3-(3-(4-((2-(3-(2,6-dioxopiperidin-3-yl)-1-methyl-1H-indazol-7-yl)-2-azaspiro[3.5]nonan-7-yl)methyl)piperazin-1-yl)propoxy)-2-methylphenyl)picolinic acid]
B (50% ≤ Ymin < 70%)	B (50% ≤ Ymin < 70%)	100 to 1000 nM	< 100 nM	Cc1c(OCCCN2CCN(CCOc3ccc4c(C5CCC(=O)NC5=O)nn(C)c4c3)CC2)cccc1-c1ccc(N2CCc3cccc(C(=O)Nc4nc5ccccc5s4)c3C2)nc1C(=O)O (stereo not shown) [Compound 136, 6-(8-(benzo[d]thiazol-2-ylcarbamoyl)-3,4-dihydroisoquinolin-2(1H)-yl)-3-(3-(3-(4-(2-((3-(2,6-dioxopiperidin-3-yl)-1-methyl-1H-indazol-6-yl)oxy)ethyl)piperazin-1-yl)propoxy)-2-methylphenyl)picolinic acid]
